Tests used:
[1] = test system: LHPP; details: pH 8.2, in the presence of 1 mM MgCl2; LHPP isolated from bovine liver; cited from earlier work
[2] = target: T1, LHPP (Homo sapiens, UniProt Q9H008); format: biochemical
T1 sequence (Q9H008 1-270): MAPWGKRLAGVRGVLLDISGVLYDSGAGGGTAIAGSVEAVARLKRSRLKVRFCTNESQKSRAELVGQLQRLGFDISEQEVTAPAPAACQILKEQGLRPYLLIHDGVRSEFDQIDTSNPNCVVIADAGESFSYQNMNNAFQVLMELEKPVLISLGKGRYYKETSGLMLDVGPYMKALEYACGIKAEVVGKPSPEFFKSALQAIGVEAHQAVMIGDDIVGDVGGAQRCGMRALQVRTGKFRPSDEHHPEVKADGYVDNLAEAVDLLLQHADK

[3] = 60 °C, neutral pH; cited from earlier work

Compound	released phosphate (LHPP activity) [1] [µmol/min/mg]	enzymatically hydrolyzed substrate ([2]; 100 μM 1a, 0.25 μg LHPP, 200 μL, after 60 minutes, background subtracted)	hydrolysis rate by LHPP ([2]; 100 μM substrate, 200 μL 50 mM Tris–HCl, 1 mM MgCl2, pH 7.8, 0.25 μg LHPP (0.037 μM)) [µmol/min/mg]	half-life time [3]
O=P(O)(O)NP(=O)(O)O [PNP, imidodiphosphate]	0.44			
O=P(O)(O)OP(=O)(O)O [PPi, pyrophosphate]	0.11			
N[C@@H](CCCCNP(=O)(O)O)C(=O)O [Substrate 1a, N6-phosphono-L-lysine]		roughly 50%	0.88	less than 1 h

— publication PMC8163145 (Chemical Science, 2020)
